≈ marks a conversion by molar mass, not a printed value.
Key:
Assay type in all cases: physicochemical
[1] = Solubility Test, aqueous solution with pH 9.2; conditions: aqueous buffer, thermodynamic from solid, 10.75 mg almost dissolved when 13.5 mL was added
Experimental: To the crystals (10.75 mg) obtained in Example 6 was gradually added dropwise an aqueous solution with pH 9.2. The crystals were almost dissolved at the time point when 13.5 mL was added (solubility: 0.80 mg/mL).

[2] = Stability Test (residual rate of the crystal after preservation, by HPLC); conditions: crystals in a brown glass bottle, preserved at 40° C. for 2 weeks
Experimental: Residual rate was measured by HPLC (YMC-Pack AQ-302 ODS 4.6 mm i.d.×150 mm, temperature: about 25° C., mobile phase: (A) water (B) acetonitrile:water:triethylamine=160:40:1, gradient program, detection wavelength: 285 nm).

[3] = Solubility Test, aqueous solution with pH 6.9; conditions: aqueous buffer, thermodynamic from solid, 8.87 mg almost dissolved when 35 mL was added
Experimental: To the crystals (8.87 mg) obtained in Example 6 was gradually added dropwise an aqueous solution with pH 6.9.

Work on Cc1c(OCC(F)(F)F)ccnc1C[S@@+]([O-])c1nc2ccccc2[nH]1 [Example 6, (R)-2-[[[3-methyl-4-(2,2,2-trifluoroethoxy)-2-pyridyl]methyl]sulfinyl]benzimidazole] yielded a solubility [1] of 800 µg/mL (≈ 2170 µM), a residual rate [2] of 100.7% and a solubility [3] of 250 µg/mL (≈ 677 µM).
